Experiment: xn = mol fraction of the nth substance listed
Conditions: Liquid, Taylor dispersion method, x2 = 0

CC(C)CCCC(C)CCCC(C)CCCCC(C)CCCC(C)CCCC(C)C (centres undefined) [2,6,10,15,19,23-hexamethyltetracosane] + O=C=O
Conditions	binary diffusion coefficient [m2/s]
298 K, 1100 kPa	9.6e-10
298 K, 10000 kPa	8.6e-10
298 K, 32000 kPa	6.9e-10
298 K, 52000 kPa	5.6e-10
298 K, 66000 kPa	4.9e-10
323 K, 1100 kPa	1.78e-09
323 K, 10000 kPa	1.61e-09
323 K, 30000 kPa	1.35e-09
323 K, 52000 kPa	1.14e-09
323 K, 64000 kPa	1.02e-09
348 K, 1000 kPa	2.83e-09
348 K, 11000 kPa	2.57e-09
348 K, 31000 kPa	2.18e-09
348 K, 50000 kPa	1.94e-09
348 K, 67000 kPa	1.73e-09
373 K, 1000 kPa	4.06e-09
373 K, 10000 kPa	3.72e-09
373 K, 30000 kPa	3.21e-09
373 K, 47000 kPa	2.88e-09
373 K, 66000 kPa	2.58e-09
398 K, 1000 kPa	5.45e-09
398 K, 11000 kPa	4.98e-09
398 K, 31000 kPa	4.38e-09
398 K, 50000 kPa	3.89e-09
398 K, 66000 kPa	3.55e-09
423 K, 1000 kPa	7.01e-09
423 K, 11000 kPa	6.36e-09
423 K, 30000 kPa	5.69e-09
423 K, 50000 kPa	5e-09
423 K, 67000 kPa	4.6e-09

CCCCCCCCCC [decane] + O=C=O
Conditions	binary diffusion coefficient [m2/s]
298 K, 1100 kPa	4.69e-09
298 K, 22000 kPa	4e-09
298 K, 45000 kPa	3.22e-09
298 K, 68000 kPa	2.84e-09
323 K, 1100 kPa	6.44e-09
323 K, 22000 kPa	5.41e-09
323 K, 46000 kPa	4.39e-09
323 K, 68000 kPa	3.91e-09
373 K, 1100 kPa	1.04e-08
373 K, 22000 kPa	8.76e-09
373 K, 44000 kPa	7.08e-09
373 K, 67000 kPa	6.34e-09
423 K, 1100 kPa	1.51e-08
423 K, 21000 kPa	1.27e-08
423 K, 43000 kPa	1.02e-08
423 K, 66000 kPa	9.17e-09

CCCCCCCCCCCC [dodecane] + O=C=O
Conditions	binary diffusion coefficient [m2/s]
298 K, 1300 kPa	3.72e-09
298 K, 24000 kPa	3.1e-09
298 K, 47000 kPa	2.65e-09
323 K, 1200 kPa	5.53e-09
323 K, 25000 kPa	4.23e-09
323 K, 46000 kPa	3.65e-09
323 K, 63000 kPa	3.44e-09
373 K, 1200 kPa	9.3e-09
373 K, 24000 kPa	7.57e-09
373 K, 46000 kPa	6.54e-09
373 K, 61000 kPa	5.98e-09
423 K, 1200 kPa	1.35e-08
423 K, 23000 kPa	1.14e-08
423 K, 46000 kPa	9.75e-09
423 K, 65000 kPa	8.65e-09

CCCCCCC [heptane] + O=C=O
binary diffusion coefficient [m2/s]
Conditions	1000 kPa	10000 kPa	30000 kPa	31000 kPa	48000 kPa	49000 kPa	50000 kPa	51000 kPa	67000 kPa	68000 kPa
298 K	7.28e-09	6.82e-09	–	5.9e-09	–	–	5.37e-09	–	–	5.06e-09
323 K	9.25e-09	8.72e-09	7.64e-09	–	–	–	–	6.95e-09	–	6.37e-09
348 K	1.14e-08	1.02e-08	9.4e-09	–	8.1e-09	–	–	–	7.89e-09	–
373 K	1.37e-08	1.25e-08	1.12e-08	–	–	9.95e-09	–	–	–	9.32e-09
398 K	1.61e-08	1.49e-08	1.31e-08	–	–	–	1.17e-08	–	–	1.09e-08
423 K	1.8e-08	1.68e-08	1.5e-08	–	–	–	1.36e-08	–	–	1.23e-08

CCCCCCCCCCCCCCCC [hexadecane] + O=C=O
Conditions	binary diffusion coefficient [m2/s]
298 K, 1000 kPa	2.49e-09
298 K, 10000 kPa	2.31e-09
298 K, 30000 kPa	2.08e-09
323 K, 1100 kPa	3.75e-09
323 K, 10000 kPa	3.41e-09
323 K, 30000 kPa	3.17e-09
323 K, 51000 kPa	2.61e-09
323 K, 69000 kPa	2.51e-09
348 K, 1000 kPa	5.13e-09
348 K, 10000 kPa	4.64e-09
348 K, 30000 kPa	4.37e-09
348 K, 50000 kPa	3.77e-09
348 K, 67000 kPa	3.49e-09
373 K, 1100 kPa	6.72e-09
373 K, 10000 kPa	6.17e-09
373 K, 30000 kPa	5.88e-09
373 K, 52000 kPa	4.84e-09
373 K, 67000 kPa	4.67e-09
398 K, 1100 kPa	8.53e-09
398 K, 29000 kPa	7.42e-09
398 K, 53000 kPa	6.27e-09
398 K, 69000 kPa	5.86e-09
423 K, 1100 kPa	1.04e-08
423 K, 10000 kPa	9.72e-09
423 K, 29000 kPa	9.16e-09
423 K, 45000 kPa	7.96e-09
423 K, 69000 kPa	7.07e-09

CCCCCC [hexane] + O=C=O
Conditions	binary diffusion coefficient [m2/s]
298 K, 1300 kPa	8.32e-09
298 K, 23000 kPa	7.27e-09
298 K, 49000 kPa	6.06e-09
298 K, 65000 kPa	5.13e-09
323 K, 1200 kPa	1.05e-08
323 K, 22000 kPa	9.27e-09
323 K, 50000 kPa	7.61e-09
323 K, 66000 kPa	7.15e-09
373 K, 1200 kPa	1.58e-08
373 K, 22000 kPa	1.34e-08
373 K, 49000 kPa	1.1e-08
373 K, 64000 kPa	1.03e-08
423 K, 1200 kPa	1.87e-08
423 K, 22000 kPa	1.79e-08
423 K, 48000 kPa	1.49e-08
423 K, 64000 kPa	1.37e-08

CCCCCCCC [octane] + O=C=O
Conditions	binary diffusion coefficient [m2/s]
298 K, 1000 kPa	6.32e-09
298 K, 11000 kPa	5.66e-09
298 K, 33000 kPa	4.72e-09
298 K, 50000 kPa	4.28e-09
298 K, 66000 kPa	3.83e-09
323 K, 900 kPa	8.19e-09
323 K, 11000 kPa	7.36e-09
323 K, 32000 kPa	6.1e-09
323 K, 51000 kPa	5.62e-09
323 K, 68000 kPa	5.1e-09
348 K, 900 kPa	1.04e-08
348 K, 11000 kPa	8.98e-09
348 K, 33000 kPa	7.7e-09
348 K, 50000 kPa	7.07e-09
348 K, 69000 kPa	6.54e-09
373 K, 1100 kPa	1.26e-08
373 K, 11000 kPa	1.11e-08
373 K, 31000 kPa	9.46e-09
373 K, 50000 kPa	8.87e-09
373 K, 67000 kPa	8.01e-09
398 K, 1100 kPa	1.48e-08
398 K, 11000 kPa	1.34e-08
398 K, 31000 kPa	1.14e-08
398 K, 51000 kPa	1.06e-08
398 K, 69000 kPa	9.67e-09
423 K, 1100 kPa	1.67e-08
423 K, 11000 kPa	1.62e-08
423 K, 29000 kPa	1.36e-08
423 K, 51000 kPa	1.27e-08
423 K, 65000 kPa	1.14e-08

Cc1ccccc1 [toluene] + O=C=O
Conditions	binary diffusion coefficient [m2/s]
298 K, 1000 kPa	5.53e-09
298 K, 11000 kPa	5.09e-09
298 K, 30000 kPa	4.77e-09
298 K, 48000 kPa	4.28e-09
298 K, 68000 kPa	3.92e-09
323 K, 1000 kPa	7.28e-09
323 K, 10000 kPa	6.78e-09
323 K, 30000 kPa	6.32e-09
323 K, 49000 kPa	5.7e-09
323 K, 66000 kPa	5.17e-09
348 K, 1000 kPa	9.26e-09
348 K, 11000 kPa	8.62e-09
348 K, 30000 kPa	8.02e-09
348 K, 48000 kPa	7.31e-09
348 K, 67000 kPa	6.54e-09
373 K, 1000 kPa	1.14e-08
373 K, 10000 kPa	1.04e-08
373 K, 30000 kPa	9.81e-09
373 K, 51000 kPa	8.94e-09
373 K, 67000 kPa	8e-09
398 K, 1000 kPa	1.38e-08
398 K, 10000 kPa	1.24e-08
398 K, 30000 kPa	1.17e-08
398 K, 48000 kPa	1.05e-08
398 K, 68000 kPa	9.6e-09
423 K, 1100 kPa	1.6e-08
423 K, 10000 kPa	1.5e-08
423 K, 30000 kPa	1.4e-08
423 K, 50000 kPa	1.23e-08
423 K, 67000 kPa	1.14e-08

Source: the NIST ThermoML archive (doi:10.1021/acs.jced.6b00691)
